Results reported in ChEMBL document CHEMBL3046424, “Growth inhibitory effects on fall armyworm Spodoptera frugiperda of some limonoids isolated from Cedrela spp. (Meliaceae)” (2000).
Converted amounts (≈) assume the structure as drawn.

Columns and labels:
Type in all cases: functional
Spodoptera frugiperda [1] = test: Insecticidal activity against Spodoptera frugiperda (fall armyworm) assessed as mean length at 5 ug/ml in artificial diet measured after 7 days (reference value: 28 +/- 4.1 mg)
Spodoptera frugiperda [2] = test: Insecticidal activity against Spodoptera frugiperda (fall armyworm) assessed as mean emergence days at 25 ug/ml in artificial diet (reference value: 33 days)
Spodoptera frugiperda [3] = test: Insecticidal activity against Spodoptera frugiperda (fall armyworm) assessed as mean weight gain at 52 ug/ml in artificial diet measured after 7 days (reference value: 75.5 +/- 8.24 mg)
Spodoptera frugiperda [4] = test: Insecticidal activity against Spodoptera frugiperda (fall armyworm) assessed as mean emergence at 5 ug/ml in artificial diet (reference value: 83.3 %)
Spodoptera frugiperda [5] = test: Insecticidal activity against Spodoptera frugiperda (fall armyworm) assessed as mean weight gain at 5 ug/ml in artificial diet measured after 7 days (reference value: 469.5 +/- 6.59 mg)
Spodoptera frugiperda [6] = test: Insecticidal activity against Spodoptera frugiperda (fall armyworm) assessed as mean weight gain at 52 ug/ml in artificial diet measured after 7 days (reference value: 469.5 +/- 6.59 mg)
Spodoptera frugiperda [7] = test: Insecticidal activity against Spodoptera frugiperda (fall armyworm) assessed as mean weight gain at 25 ug/ml in artificial diet measured after 7 days (reference value: 75.5 +/- 8.24 mg)
Spodoptera frugiperda [8] = test: Insecticidal activity against Spodoptera frugiperda (fall armyworm) assessed as mean emergence days at 5 ug/ml in artificial diet (reference value: 33 days)
Spodoptera frugiperda [9] = test: Insecticidal activity against Spodoptera frugiperda (fall armyworm) assessed as mean length at 5 ug/ml in artificial diet measured after 7 days (reference value: 0.95 +/- 0.2 cm)
Spodoptera frugiperda [10] = test: Insecticidal activity against Spodoptera frugiperda (fall armyworm) assessed as mean emergence days at 52 ug/ml in artificial diet (reference value: 33 days)
Spodoptera frugiperda [11] = test: Insecticidal activity against Spodoptera frugiperda (fall armyworm) assessed as mean length at 52 ug/ml in artificial diet measured after 7 days (reference value: 0.95 +/- 0.2 cm)
Spodoptera frugiperda [12] = test: Insecticidal activity against Spodoptera frugiperda (fall armyworm) assessed as mean length at 25 ug/ml in artificial diet measured after 7 days (reference value: 0.95 +/- 0.2 cm)
Spodoptera frugiperda [13] = test: Insecticidal activity against Spodoptera frugiperda (fall armyworm) assessed as mean weight of pupae at 25 ug/ml in artificial diet (reference value: 281.5 +/- 10.3 mg)
Spodoptera frugiperda [14] = test: Insecticidal activity against Spodoptera frugiperda (fall armyworm) assessed as mean weight of pupae at 52 ug/ml in artificial diet (reference value: 281.5 +/- 10.3 mg)
Spodoptera frugiperda [15] = test: Insecticidal activity against Spodoptera frugiperda (fall armyworm) assessed as mean pupation at 52 ug/ml in artificial diet (reference value: 87.5 %)
Spodoptera frugiperda [16] = test: Insecticidal activity against Spodoptera frugiperda (fall armyworm) assessed as mean pupation at 25 ug/ml in artificial diet (reference value: 87.5 %)
Spodoptera frugiperda [17] = test: Insecticidal activity against Spodoptera frugiperda (fall armyworm) assessed as mortality at 25 ug/ml in artificial diet measured after 7 days (reference value: 8.33%); details: 168 h
Spodoptera frugiperda [18] = test: Insecticidal activity against Spodoptera frugiperda (fall armyworm) assessed as mean length at 52 ug/ml in artificial diet measured after 7 days (reference value: 28 +/- 4.1 mg)
Spodoptera frugiperda [19] = test: Insecticidal activity against Spodoptera frugiperda (fall armyworm) assessed as mean length at 70 ug/ml in artificial diet measured after 7 days (reference value: 0.95 +/- 0.2 cm)
Spodoptera frugiperda [20] = test: Insecticidal activity against Spodoptera frugiperda (fall armyworm) assessed as mean length at 25 ug/ml in artificial diet measured after 7 days (reference value: 28 +/- 4.1 mg)
Spodoptera frugiperda [21] = test: Insecticidal activity against Spodoptera frugiperda (fall armyworm) assessed as mean time to pupation at 5 ug/ml in artificial diet (reference value: 22 days)
Spodoptera frugiperda [22] = test: Insecticidal activity against Spodoptera frugiperda (fall armyworm) assessed as mortality at 52 ug/ml in artificial diet measured after 7 days (reference value: 8.33%); details: 168 h
Spodoptera frugiperda [23] = test: Insecticidal activity against Spodoptera frugiperda (fall armyworm) assessed as mean emergence at 25 ug/ml in artificial diet (reference value: 83.3 %)
Spodoptera frugiperda [24] = test: Insecticidal activity against Spodoptera frugiperda (fall armyworm) assessed as mortality at 5 ug/ml in artificial diet measured after 7 days (reference value: 8.33%); details: 168 h
Spodoptera frugiperda [25] = test: Insecticidal activity against Spodoptera frugiperda (fall armyworm) assessed as mean weight gain at 70 ug/ml in artificial diet measured after 7 days (reference value: 75.5 +/- 8.24 mg)
Spodoptera frugiperda [26] = test: Insecticidal activity against Spodoptera frugiperda (fall armyworm) assessed as mean time to pupation at 25 ug/ml in artificial diet (reference value: 22 days)
Spodoptera frugiperda [27] = test: Insecticidal activity against Spodoptera frugiperda (fall armyworm) assessed as mortality at 70 ug/ml in artificial diet measured after 7 days (reference value: 8.33%); details: 168 h
Spodoptera frugiperda [28] = test: Insecticidal activity against Spodoptera frugiperda (fall armyworm) assessed as mean pupation at 5 ug/ml in artificial diet (reference value: 87.5 %)
Spodoptera frugiperda [29] = test: Insecticidal activity against Spodoptera frugiperda (fall armyworm) assessed as mean emergence at 52 ug/ml in artificial diet (reference value: 83.3 %)
Spodoptera frugiperda [30] = test: Insecticidal activity against Spodoptera frugiperda (fall armyworm) assessed as mean time to pupation at 52 ug/ml in artificial diet (reference value: 22 days)
Spodoptera frugiperda [31] = test: Insecticidal activity against Spodoptera frugiperda (fall armyworm) assessed as mean weight of pupae at 5 ug/ml in artificial diet (reference value: 281.5 +/- 10.3 mg)
Spodoptera frugiperda [32] = test: Insecticidal activity against Spodoptera frugiperda (fall armyworm) assessed as mean weight gain at 25 ug/ml in artificial diet measured after 7 days (reference value: 469.5 +/- 6.59 mg)
Spodoptera frugiperda [33] = test: Insecticidal activity against Spodoptera frugiperda (fall armyworm) assessed as mean weight gain at 5 ug/ml in artificial diet measured after 7 days (reference value: 75.5 +/- 8.24 mg)
Spodoptera frugiperda [34] = test: Insecticidal activity against Spodoptera frugiperda (fall armyworm) assessed as mortality measured after 7 days; details: 168 h

Row | SMILES | Activity (Spodoptera frugiperda [1]) [mm] | Time (Spodoptera frugiperda [2]) [days] | Activity (Spodoptera frugiperda [3]) [mg] | Activity (Spodoptera frugiperda [4]) [%] | Activity (Spodoptera frugiperda [5]) [mg] | Activity (Spodoptera frugiperda [6]) [mg] | Activity (Spodoptera frugiperda [7]) [mg] | Time (Spodoptera frugiperda [8]) [days] | Activity (Spodoptera frugiperda [9]) [cm] | Activity (Spodoptera frugiperda [11]) [cm] | Activity (Spodoptera frugiperda [12]) [cm] | Activity (Spodoptera frugiperda [13]) [mg] | Activity (Spodoptera frugiperda [14]) [mg] | Activity (Spodoptera frugiperda [15]) [%] | Activity (Spodoptera frugiperda [16]) [%] | mortality at 25 µg/mL (Spodoptera frugiperda [17]) [%] | Activity (Spodoptera frugiperda [18]) [mm] | Activity (Spodoptera frugiperda [20]) [mm] | Time (Spodoptera frugiperda [21]) [days] | mortality at 52 µg/mL (Spodoptera frugiperda [22]) [%] | other results
1 | CCC(=O)[C@@H]1C(=O)O[C@@]2(C=O)[C@H]1[C@](C)([C@@H](OC(C)=O)c1ccoc1)CC[C@@H]2[C@@]1(C)C(=O)C[C@@H]2O[C@@H](C(=O)OC)[C@H]1C2(C)C [CEDRELANOLIDE] | 8.7 | 33 | 15.4 | 79.2 | 55.7 | 40.1 | 20.8 | 33 | 1.2 | 0.7 | 0.95 | 191.8 | 123.9 | 62.5 | 66.7 | 21 | 5.3 | 6.7 | 22 | 28 | Time (Spodoptera frugiperda [10]): 33 days; Activity (Spodoptera frugiperda [19]): 0.51 cm; Activity (Spodoptera frugiperda [23]): 62.5%; mortality at 5 µg/mL (Spodoptera frugiperda [24]): 15%; Activity (Spodoptera frugiperda [25]): 9.1 mg; Time (Spodoptera frugiperda [26]): 21.5 days; mortality at 70 µg/mL (Spodoptera frugiperda [27]): 38%; Activity (Spodoptera frugiperda [28]): 79.2%; Activity (Spodoptera frugiperda [29]): 50%; Time (Spodoptera frugiperda [30]): 22.5 days; Activity (Spodoptera frugiperda [31]): 221.9 mg; Activity (Spodoptera frugiperda [32]): 41.6 mg; Activity (Spodoptera frugiperda [33]): 27.85 mg
2 | CC(=O)O[C@@H]1C[C@H](O)[C@@]23CO[C@@H](O)[C@]1(C)[C@@H]2C[C@@H](O)[C@]1(C)[C@@H]3C(=O)[C@H](OC(C)=O)[C@@]2(C)[C@H](c3ccoc3)C[C@H]3O[C@]321 [TOOSENDANIN] | 7 | 36 | 1 | 16.7 | 21.5 | 11.2 | 2.3 | 36 | 0.98 | 0.57 | 0.77 | 45.1 | 38 | 4.17 | 4.17 | 70 | 2.8 | 6.1 | 23.5 | 89 | LC50 (Spodoptera frugiperda [34]): 7 µg/mL (≈ 12.2 µM); Activity (Spodoptera frugiperda [23]): 4.17%; mortality at 5 µg/mL (Spodoptera frugiperda [24]): 40%; Time (Spodoptera frugiperda [26]): 24 days; Activity (Spodoptera frugiperda [28]): 17.9%; Activity (Spodoptera frugiperda [29]): 0%; Time (Spodoptera frugiperda [30]): 24 days; Activity (Spodoptera frugiperda [31]): 95 mg; Activity (Spodoptera frugiperda [32]): 17 mg; Activity (Spodoptera frugiperda [33]): 5.1 mg
